Experimental data published in patent publication US20240270762A1, “PENICILLIN-BINDING PROTEIN INHIBITORS” (priority 2021, published 2024).
In brackets after ≈: the same amount, converted by molar mass.

Key:
[1] = target: T1, PBP3 from Acinetobacter baumannii (ATCC 19606) (Acinetobacter baumannii, UniProt A0ABX6CK25); test: Bocillin-FL fluorescence polarization competition binding, A. baumannii PBP3; settings: fluorescence polarization competition binding assay using Bocillin-FL; read-out: A. baumannii PBP3 Potency
T1 sequence (A0ABX6CK25 64-610): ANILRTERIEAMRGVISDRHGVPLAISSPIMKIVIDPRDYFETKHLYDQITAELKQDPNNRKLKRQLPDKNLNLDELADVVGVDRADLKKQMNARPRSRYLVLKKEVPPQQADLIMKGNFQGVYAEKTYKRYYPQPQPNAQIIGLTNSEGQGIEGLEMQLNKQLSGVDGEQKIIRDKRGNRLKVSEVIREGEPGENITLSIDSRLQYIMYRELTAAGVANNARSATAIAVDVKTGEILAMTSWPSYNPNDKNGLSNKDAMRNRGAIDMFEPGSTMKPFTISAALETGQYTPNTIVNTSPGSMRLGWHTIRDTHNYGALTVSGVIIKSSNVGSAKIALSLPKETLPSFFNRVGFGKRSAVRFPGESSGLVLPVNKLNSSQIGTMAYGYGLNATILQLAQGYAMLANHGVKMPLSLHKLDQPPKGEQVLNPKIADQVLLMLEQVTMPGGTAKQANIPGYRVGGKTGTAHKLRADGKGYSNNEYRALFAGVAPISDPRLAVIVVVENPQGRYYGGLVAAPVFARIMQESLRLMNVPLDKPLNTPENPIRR
How it was run: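 Purified PBP was preincubated with inhibitor (E. coli PBP3 1.5 μM, 30 min; P. aeruginosa PBP3 0.75 μM, A. baumannii PBP3 0.2 μM and PBP1a 1 μM, 15 min), then Bocillin-FL (0.1 μM; 0.05 μM for PBP1a) added and FP read up to 60 min. EC50 = 50% loss of bound probe.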

A. baumannii PBP2 = A. baumannii PBP2 (Acinetobacter baumannii, UniProt D0C8Z9); test: Bocillin-FL competition binding via gel filtration, A. baumannii PBP2
How it was run: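 Competitive equilibrium binding; reporter Bocillin-FL. PBP + inhibitor (titration) pre-incubated → Bocillin-FL, 15 min → gel filtration → fluorescence. EC50 from Hill fit of fraction bound vs [inhibitor].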

P. aeruginosa ATCC 27853 = test: microbe, parasite or virus in culture; format: cell-based; settings: Pseudomonas aeruginosa, ATCC27853, read-out: Minimum inhibitory concentration, P. aeruginosa ATCC 27853
A. baumannii ATCC 19606 = test: microbe, parasite or virus in culture; format: cell-based; settings: Acinetobacter baumannii, ATCC19606, read-out: MIC, A. baumannii ATCC 19606
P. aeruginosa CDC-0095 = test: microbe, parasite or virus in culture; format: cell-based; settings: Pseudomonas aeruginosa, CDC0095, read-out: Minimum inhibitory concentration, P. aeruginosa CDC-0095
A. baumannii CDC-0045 = test: microbe, parasite or virus in culture; format: cell-based; settings: Acinetobacter baumannii, CDC0045, read-out: MIC, A. baumannii CDC-0045
[2] = test system: B. thailandensis ATCC 700388; test: microbe, parasite or virus in culture; format: cell-based; settings: Burkholderia thailandensis, ATCC700388, read-out: Minimum inhibitory concentration (MIC), B. thailandensis ATCC 700388
P. aeruginosa CDC-0110 = test: microbe, parasite or virus in culture; format: cell-based; settings: Pseudomonas aeruginosa, CDC0110, read-out: Minimum inhibitory concentration, P. aeruginosa CDC-0110

A. baumannii PBP2, sequence (D0C8Z9 whole entry): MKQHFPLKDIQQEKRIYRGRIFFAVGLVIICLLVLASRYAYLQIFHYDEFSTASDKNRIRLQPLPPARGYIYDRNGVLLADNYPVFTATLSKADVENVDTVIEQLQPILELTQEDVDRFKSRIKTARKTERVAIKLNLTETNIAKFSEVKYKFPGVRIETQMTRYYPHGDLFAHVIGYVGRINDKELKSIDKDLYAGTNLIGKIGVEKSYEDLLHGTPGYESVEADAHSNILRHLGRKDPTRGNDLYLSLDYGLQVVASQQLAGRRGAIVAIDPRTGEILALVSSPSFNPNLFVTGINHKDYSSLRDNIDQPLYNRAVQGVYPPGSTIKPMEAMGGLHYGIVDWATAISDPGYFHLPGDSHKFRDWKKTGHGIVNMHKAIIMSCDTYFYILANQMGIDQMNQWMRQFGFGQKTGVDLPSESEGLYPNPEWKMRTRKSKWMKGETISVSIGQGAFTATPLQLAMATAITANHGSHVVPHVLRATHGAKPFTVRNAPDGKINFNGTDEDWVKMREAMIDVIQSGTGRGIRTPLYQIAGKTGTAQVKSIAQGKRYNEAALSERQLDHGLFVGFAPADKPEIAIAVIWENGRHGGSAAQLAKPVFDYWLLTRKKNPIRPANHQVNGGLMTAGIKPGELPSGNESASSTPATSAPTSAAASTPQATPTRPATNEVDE

SMILES	IC50 [1] [µM]	EC50 (A. baumannii PBP2) [µM]	MIC (P. aeruginosa ATCC 27853) [µg/mL]	MIC (A. baumannii ATCC 19606) [µg/mL]	MIC (P. aeruginosa CDC-0095) [µg/mL]	MIC (A. baumannii CDC-0045) [µg/mL]	MIC [2] [µg/mL]	MIC (P. aeruginosa CDC-0110) [µg/mL]
O=C(O)c1c(F)ccc2c1OB(O)[C@@H](NC(=O)[C@H](NC(=O)N1CCN(C3CCN(C(=O)Nc4c(F)ccc(O)c4F)CC3)C1=O)c1cc(F)c(O)c(O)c1Cl)C2 (single isomer, unassigned) [Example 454]	< 10	< 10	2 to 4 (≈ 2.47 to 4.95 µM)	< 1	2 to 4 (≈ 2.47 to 4.95 µM)	< 1	< 1	< 1
O=C(O)c1c(F)ccc2c1OB(O)[C@@H](NC(=O)[C@H](NC(=O)N1CCN(C3CCN(C(=O)Nc4c(F)ccc(O)c4Cl)CC3)C1=O)c1cc(F)c(O)c(O)c1Cl)C2 (single isomer, unassigned) [Example 455]	< 10	< 10	< 1	< 1	< 1	< 1	< 1	< 1
O=C(O)c1c(F)ccc2c1OB(O)[C@@H](NC(=O)[C@H](NC(=O)N1CCN(C3CCN(C(=O)c4ccc(O)cc4)CC3)C1=O)c1cc(F)c(O)c(O)c1Cl)C2 (single isomer, unassigned) [Example 463]	< 10	< 10	< 1	< 1	< 1	< 1	< 1	< 1
O=C(O)c1cccc2c1OB(O)[C@@H](NC(=O)C(NC(=O)N1CCN(Cc3cc(F)c(O)c(O)c3Cl)C(=O)C1=O)c1ccc(P(=O)(O)O)cc1)C2 (stereo partly drawn) [Example 164, (3R)-3-(2-(4-(2-chloro-5-fluoro-3,4-dihydroxybenzyl)-2,3-dioxopiperazine-1-carboxamido)-2-(4-phosphonophenyl)acetamido)-2-hydroxy-3,4-dihydro-2H-benzo[e][1,2]oxaborinine-8-carboxylic acid]	< 10	< 10	< 1	< 1	< 1	< 1	< 1	< 1
O=C(O)c1c(F)ccc2c1OB(O)[C@@H](NC(=O)[C@H](NC(=O)N1CCN(Cc3ccc(O)c(O)c3Cl)C(=O)C1=O)c1ccc(P(=O)(O)O)c(F)c1F)C2 [Example 166, (R)-3-((R)-2-(4-(2-chloro-3,4-dihydroxybenzyl)-2,3-dioxopiperazine-1-carboxamido)-2-(2,3-difluoro-4-phosphonophenyl)acetamido)-7-fluoro-2-hydroxy-3,4-dihydro-2H-benzo[e][1,2]oxaborinine-8-carboxylic acid]	< 10	10 to 50	< 1	< 1	< 1	< 1	< 1	< 1
O=C(NCCS(=O)(=O)N1CCN(C(=O)N[C@H](C(=O)N[C@H]2Cc3ccc(F)c(C(=O)O)c3OB2O)c2ccc(P(=O)(O)O)cc2)C1=O)c1ccc(O)c(O)c1Cl [Example 167, (R)-3-((S)-2-(3-((2-(2-chloro-3,4-dihydroxybenzamido)ethyl)sulfonyl)-2-oxoimidazolidine-1-carboxamido)-2-(4-phosphonophenyl)acetamido)-7-fluoro-2-hydroxy-3,4-dihydro-2H-benzo[e][1,2]oxaborinine-8-carboxylic acid]	10 to 50	10 to 50	> 128	> 128	> 128	> 128	> 128	> 128
O=C(O)c1c(F)ccc2c1OB(O)[C@@H](NC(=O)[C@H](NC(=O)N1CCN(C3CCN(C(=O)c4ccc(F)c(O)c4Cl)CC3)C1=O)c1cc(F)c(O)c(O)c1Cl)C2 [Example 438, (R)-3-((R)-2-(3-(1-(2-chloro-4-fluoro-3-hydroxybenzoyl)piperidin-4-yl)-2-oxoimidazolidine-1-carboxamido)-2-(2-chloro-5-fluoro-3,4-dihydroxyphenyl)acetamido)-7-fluoro-2-hydroxy-3,4-dihydro-2H-benzo[e][1,2]oxaborinine-8-carboxylic acid]	< 10	< 10	< 1	< 1	< 1	< 1	< 1	< 1
O=C(O)c1c(F)ccc2c1OB(O)[C@@H](NC(=O)[C@H](NC(=O)N1CCN(C3CCN(C(=O)Nc4cccc(O)c4)CC3)C1=O)c1cc(F)c(O)c(O)c1Cl)C2 [Example 445, (R)-3-((R)-2-(2-chloro-5-fluoro-3,4-dihydroxyphenyl)-2-(3-(1-((3-hydroxyphenyl)carbamoyl)piperidin-4-yl)-2-oxoimidazolidine-1-carboxamido)acetamido)-7-fluoro-2-hydroxy-3,4-dihydro-2H-benzo[e][1,2]oxaborinine-8-carboxylic acid]	< 10	< 10	< 1	< 1	< 1	< 1	< 1	< 1
O=C(O)c1c(F)ccc2c1OB(O)[C@@H](NC(=O)[C@H](NC(=O)N1CCN(C3CCN(C(=O)Nc4cccc(O)c4Cl)CC3)C1=O)c1cc(F)c(O)c(O)c1Cl)C2 [Example 447, (R)-3-((R)-2-(3-(1-((2-chloro-3-hydroxyphenyl)carbamoyl)piperidin-4-yl)-2-oxoimidazolidine-1-carboxamido)-2-(2-chloro-5-fluoro-3,4-dihydroxyphenyl)acetamido)-7-fluoro-2-hydroxy-3,4-dihydro-2H-benzo[e][1,2]oxaborinine-8-carboxylic acid]	< 10	< 10	< 1	< 1	< 1	< 1	< 1	< 1
O=C(O)c1c(F)ccc2c1OB(O)[C@@H](NC(=O)[C@H](NC(=O)N1CCN(C3CCN(C(=O)Nc4cc(O)cc(O)c4)CC3)C1=O)c1cc(F)c(O)c(O)c1Cl)C2 [Example 456, (R)-3-((R)-2-(2-chloro-5-fluoro-3,4-dihydroxyphenyl)-2-(3-(1-((3,5-dihydroxyphenyl)carbamoyl)piperidin-4-yl)-2-oxoimidazolidine-1-carboxamido)acetamido)-7-fluoro-2-hydroxy-3,4-dihydro-2H-benzo[e][1,2]oxaborinine-8-carboxylic acid]	< 10	< 10	< 1	< 1	< 1	< 1	< 1	< 1
O=C(O)c1c(F)ccc2c1OB(O)[C@@H](NC(=O)[C@H](NC(=O)N1CCN(C3CCN(C(=O)c4cccnc4)CC3)C1=O)c1cc(F)c(O)c(O)c1Cl)C2 [Example 460, (R)-3-((R)-2-(2-chloro-5-fluoro-3,4-dihydroxyphenyl)-2-(3-(1-nicotinoylpiperidin-4-yl)-2-oxoimidazolidine-1-carboxamido)acetamido)-7-fluoro-2-hydroxy-3,4-dihydro-2H-benzo[e][1,2]oxaborinine-8-carboxylic acid]	< 10	10 to 50	< 1	< 1	< 1	< 1	< 1	< 1
O=C(O)c1c(F)ccc2c1OB(O)[C@@H](NC(=O)[C@H](NC(=O)N1CCN(C3CCN(C(=O)c4ccncc4)CC3)C1=O)c1cc(F)c(O)c(O)c1Cl)C2 [Example 461, (R)-3-((R)-2-(2-chloro-5-fluoro-3,4-dihydroxyphenyl)-2-(3-(1-isonicotinoylpiperidin-4-yl)-2-oxoimidazolidine-1-carboxamido)acetamido)-7-fluoro-2-hydroxy-3,4-dihydro-2H-benzo[e][1,2]oxaborinine-8-carboxylic acid]	< 10	10 to 50	< 1	< 1	< 1	< 1	< 1	< 1
